Where two headings read alike, the source gives them in different places.
Assays:
[1] = Urine pharmacokinetics of IM156 in patients; assay type: in vivo, human; settings: for % Dose Recovered / CLr / Total Amount Excreted (Ae): urine
[2] = tested on: glioblastoma (GSC11); design: method as in ImmunoMet, 2018; settings: glioblastoma animal model, control group 47 days; ref ImmunoMet, 2018; cited from earlier work
[3] = tested on: GC lines including MKN-74; design: method as in ImmunoMet, 2018; settings: Eleven GC lines including MKN-74; ref ImmunoMet, 2018; cited from earlier work
[4] = tested on: rodent bone marrow; settings: ref ImmunoMet, 2018; cited from earlier work
[5] = tested on: Glioblastoma cells; design: method as in ImmunoMet, 2018; settings: 15 µM IM156, 500 µM temozolomide, ref ImmunoMet, 2018; cited from earlier work
[6] = beagle dogs, ref ImmunoMet, 2018, cited from earlier work
[7] = tested on: OXPHOS; assay: OXPHOS inhibition in whole blood ex vivo; assay type: cell-based; settings: at ~ 6 μM IM156
Procedure: The maximum plasma exposure achieved in this study was ~ 6 μM in patients who received IM156 at daily doses of 800 mg. […] As such, measurements of target inhibition were not informative using PBMCs-based assays.

[8] = presence and absence of activated S9; ref ImmunoMet, 2018; cited from earlier work
[9] = Day 27, cohort 1, 100 mg QOD, n<3
[10] = Day 27, cohort 7, 1200 mg QD, n<3

For `NC(=Nc1ccc(OC(F)(F)F)cc1)N=C(N)N1CCCC1` [IM156], the “IM156 excreted in the urine” value ([1]; Day 1, 200—1200 mg QOD, approximately) was 8–10%, the “% Dose Recovered” value ([1]; Day 1, cohort 1, 100 mg QOD) was 1.79 ± 0.620% and the CLr ([1]; Day 1, cohort 1, 100 mg QOD) was 6.16 ± 5.25 L/h. The “Total Amount Excreted (Ae)” value ([1]; Day 1, cohort 1, 100 mg QOD) was 1790 ± 620 µg, the “% Dose Recovered” value ([1]; Day 1, cohort 2, 200 mg QOD) was 10.0 ± 1.57% and the CLr ([1]; Day 1, cohort 2, 200 mg QOD) was 6.69 ± 0.709 L/h. For the same compound, the “Total Amount Excreted (Ae)” value ([1]; Day 1, cohort 2, 200 mg QOD) was 20000 ± 3150 µg, the “% Dose Recovered” value ([1]; Day 1, cohort 3, 400 mg QOD) was 7.90 ± 2.90% and the CLr ([1]; Day 1, cohort 3, 400 mg QOD) was 9.41 ± 6.80 L/h. The “Total Amount Excreted (Ae)” value ([1]; Day 1, cohort 3, 400 mg QOD) was 31600 ± 11600 µg, the “% Dose Recovered” value ([1]; Day 1, cohort 4, 800 mg QOD) was 7.86 ± 4.25% and the CLr ([1]; Day 1, cohort 4, 800 mg QOD) was 10.4 ± 6.93 L/h. For the same compound, the “Total Amount Excreted (Ae)” value ([1]; Day 1, cohort 4, 800 mg QOD) was 62900 ± 34000 µg, the “% Dose Recovered” value ([1]; Day 1, cohort 5, 1200 mg QOD) was 9.11 ± 12.9% and the CLr ([1]; Day 1, cohort 5, 1200 mg QOD) was 7.89 ± 9.01 L/h. The “Total Amount Excreted (Ae)” value ([1]; Day 1, cohort 5, 1200 mg QOD) was 109000 ± 155000 µg, the “% Dose Recovered” value ([1]; Day 1, cohort 6, 800 mg QD) was 7.96 ± 5.94% and the CLr ([1]; Day 1, cohort 6, 800 mg QD) was 7.92 ± 2.62 L/h. The “Total Amount Excreted (Ae)” value ([1]; Day 1, cohort 6, 800 mg QD) was 63700 ± 47500 µg, the “% Dose Recovered” value ([1]; Day 1, cohort 7, 1200 mg QD) was 8.79 ± 2.05% and the CLr ([1]; Day 1, cohort 7, 1200 mg QD) was 7.60 ± 4.02 L/h. For the same compound, the “Total Amount Excreted (Ae)” value ([1]; Day 1, cohort 7, 1200 mg QD) was 105000 ± 24600 µg, the “% Dose Recovered” value [1, 9] was 4.32% and the CLr [1, 9] was 4.46 L/h. The “Total Amount Excreted (Ae)” value [1, 9] was 4320 µg, the “% Dose Recovered” value ([1]; Day 27, cohort 2, 200 mg QOD) was 13.9 ± 2.34% and the CLr ([1]; Day 27, cohort 2, 200 mg QOD) was 6.83 ± 1.58 L/h. For the same compound, the “Total Amount Excreted (Ae)” value ([1]; Day 27, cohort 2, 200 mg QOD) was 27700 ± 4680 µg, the “% Dose Recovered” value ([1]; Day 27, cohort 3, 400 mg QOD) was 16.2 ± 11.4% and the CLr ([1]; Day 27, cohort 3, 400 mg QOD) was 8.68 ± 1.52 L/h. For the same compound, the “Total Amount Excreted (Ae)” value ([1]; Day 27, cohort 3, 400 mg QOD) was 64700 ± 45600 µg, the “% Dose Recovered” value ([1]; Day 27, cohort 4, 800 mg QOD) was 16.2 ± 9.80% and the CLr ([1]; Day 27, cohort 4, 800 mg QOD) was 11.2 ± 6.94 L/h. The “Total Amount Excreted (Ae)” value ([1]; Day 27, cohort 4, 800 mg QOD) was 129000 ± 78400 µg, the “% Dose Recovered” value ([1]; Day 27, cohort 5, 1200 mg QOD) was 18.7 ± 10.6% and the CLr ([1]; Day 27, cohort 5, 1200 mg QOD) was 10.9 ± 7.79 L/h. For the same compound, the “Total Amount Excreted (Ae)” value ([1]; Day 27, cohort 5, 1200 mg QOD) was 225000 ± 128000 µg, the “% Dose Recovered” value ([1]; Day 27, cohort 6, 800 mg QD) was 34.8 ± 6.56% and the CLr ([1]; Day 27, cohort 6, 800 mg QD) was 8.72 ± 3.01 L/h. The “Total Amount Excreted (Ae)” value ([1]; Day 27, cohort 6, 800 mg QD) was 279000 ± 52500 µg, the “% Dose Recovered” value [1, 10] was 21.0% and the CLr [1, 10] was 7.16 L/h. For the same compound, the “Total Amount Excreted (Ae)” value [1, 10] was 252000 µg, the “% Dose Recovered” value ([1]; Fed 1, cohort 7, 1200 mg) was 5.42 ± 3.51% and the CLr ([1]; Fed 1, cohort 7, 1200 mg) was 5.16 ± 3.51 L/h. The “Total Amount Excreted (Ae)” value ([1]; Fed 1, cohort 7, 1200 mg) was 65100 ± 42100 µg, the median survival time [2] was 82 days and the “sensitivity of GC lines to single agent” value [3] was “significant sensitivity”. The “genotoxicity in in vivo micronucleus test” value [4] was “not genotoxic”, the neurosphere size [5] was “decreased” and the “accumulation over 27 days” value ([6]; 20 mg/kg/dose QOD) was “no apparent accumulation”. The “accumulation over 27 days” value ([6]; 40 and 80 mg/kg/dose QOD) was “accumulation”, the “inhibition of OXPHOS in whole blood ex vivo” value [7] was “very little inhibition” and the “genotoxicity in two in vitro assays” value [8] was “not genotoxic”.

— article PMC9395488, “First-in-human study of IM156, a novel potent biguanide oxidative phosphorylation (OXPHOS) inhibitor, in patients with advanced solid tumors” (Investigational New Drugs, 2022)
